PMC10866072, “Design, synthesis, molecular modelling and biological evaluation of novel 6-amino-5-cyano-2-thiopyrimidine derivatives as potent anticancer agents against leukemia and apoptotic inducers” (Journal of Enzyme Inhibition and Medicinal Chemistry, 2024)

Columns and labels:
[1] = MTT cytotoxicity on normal cells; type: cell-based; details: human, WI-38 cells (normal lung fibroblasts), WI-38 normal cells, mean ± SD of three experiments, read-out: IC50 (cytotoxic activity)
Description: The American Type Culture Collection provided WI-38 cells (normal lung cells). The cells were grown in DMEM with 10% heat-inactivated FBS (Hyclone), 10 µg/ml of insulin (Sigma), and 1% penicillin-streptomycin. The remaining chemicals and reagents were all from Sigma or Invitrogen. The MTT test was used to evaluate cytotoxicity, as described previously. Graph pad Prism software (San Diego, CA) was used to estimate the 50% inhibitory concentration (IC50) from dose response curve graphic plots for each conc.

ACHN = type: cell-based; details: Homo sapiens, one dose 10^-5 M, 48 h
HOP-62 = type: cell-based; details: Homo sapiens, one dose 10^-5 M, 48 h
SK-OV-3 = type: cell-based; details: Homo sapiens, one dose 10^-5 M, 48 h
HL-60(TB) = type: cell-based; details: Homo sapiens, one dose 10^-5 M, 48 h
KM12 = type: cell-based; details: Homo sapiens, one dose 10^-5 M, 48 h
SK-MEL-28 = type: cell-based; details: Homo sapiens, one dose 10^-5 M, 48 h
COLO 205 = type: cell-based; details: Homo sapiens, one dose 10^-5 M, 48 h
IGROV1 = type: cell-based; details: Homo sapiens, IGROV-1, one dose 10^-5 M, 48 h, read-out: % growth
SN12C = type: cell-based, human; details: Homo sapiens, one dose 10^-5 M, 48 h
PC-3 = type: cell-based; details: Homo sapiens, one dose 10^-5 M, 48 h
UACC-257 = type: cell-based; details: Homo sapiens, one dose 10^-5 M, 48 h
OVCAR-5 = type: cell-based; details: Homo sapiens, one dose 10^-5 M, 48 h
RPMI-8226 = type: cell-based; details: Homo sapiens, one dose 10^-5 M, 48 h
MDA-MB-468 = type: cell-based; details: Homo sapiens, one dose 10^-5 M, 48 h
SR = type: cell-based; details: Homo sapiens, one dose 10^-5 M, 48 h
NCI/ADR-RES = type: cell-based; details: Homo sapiens, one dose 10^-5 M, 48 h
MDA-MB-435 = type: cell-based; details: Homo sapiens, one dose 10^-5 M, 48 h, read-out: % growth
CCRF-CEM = type: cell-based; details: Homo sapiens, one dose 10^-5 M, 48 h
786-0 = type: cell-based; details: Homo sapiens, one dose 10^-5 M, 48 h
U251 = type: cell-based; details: Homo sapiens, U-251, one dose 10^-5 M, 48 h
SK-MEL-5 = type: cell-based; details: Homo sapiens, one dose 10^-5 M, 48 h, read-out: % growth
MCF7 = type: cell-based; details: Homo sapiens, one dose 10^-5 M, 48 h, read-out: % growth
A498 = type: cell-based; details: Homo sapiens, one dose 10^-5 M, 48 h
OVCAR-3 = type: cell-based; details: Homo sapiens, one dose 10^-5 M, 48 h
OVCAR-8 = type: cell-based; details: Homo sapiens, one dose 10^-5 M, 48 h
NCI-H23 = type: cell-based; details: Homo sapiens, one dose 10^-5 M, 48 h, read-out: % growth
RXF 393 = type: cell-based; details: Homo sapiens, RXF 393, 48 h, one dose 10^-5 M, 48 h, read-out: % growth
HCT-116 = type: cell-based; details: Homo sapiens, one dose 10^-5 M, 48 h, read-out: % growth
OVCAR-4 = type: cell-based; details: Homo sapiens, one dose 10^-5 M, 48 h
HCT-15 = type: cell-based; details: Homo sapiens, one dose 10^-5 M, 48 h, read-out: % growth
UO-31 = type: cell-based; details: Homo sapiens, UO-31, 48 h, one dose 10^-5 M, 48 h
NCI-H226 = type: cell-based; details: Homo sapiens, one dose 10^-5 M, 48 h
CAKI-1 = type: cell-based; details: Homo sapiens, CAKI-1, 48 h, one dose 10^-5 M, 48 h
MOLT-4 = type: cell-based; details: Homo sapiens, one dose 10^-5 M, 48 h, read-out: % growth
A549/ATCC = type: cell-based; details: Homo sapiens, one dose 10^-5 M, 48 h
SF-539 = type: cell-based; details: Homo sapiens, one dose 10^-5 M, 48 h
MALME-3M = type: cell-based; details: Homo sapiens, one dose 10^-5 M, 48 h
EKVX = type: cell-based; details: Homo sapiens, one dose 10^-5 M, 48 h
MDA-MB-231/ATCC = type: cell-based; details: Homo sapiens, one dose 10^-5 M, 48 h
BT-549 = type: cell-based; details: Homo sapiens, one dose 10^-5 M, 48 h
HOP-92 = type: cell-based; details: Homo sapiens, one dose 10^-5 M, 48 h
HT29 = type: cell-based; details: Homo sapiens, HT-29, one dose 10^-5 M, 48 h
SW-620 = type: cell-based; details: Homo sapiens, one dose 10^-5 M, 48 h
SF-295 = type: cell-based; details: Homo sapiens, one dose 10^-5 M, 48 h
NCI-H460 = type: cell-based; details: Homo sapiens, one dose 10^-5 M, 48 h, read-out: % growth
UACC-62 = type: cell-based; details: Homo sapiens, one dose 10^-5 M, 48 h
TK-10 = type: cell-based; details: Homo sapiens, one dose 10^-5 M, 48 h
SK-MEL-2 = type: cell-based; details: Homo sapiens, one dose 10^-5 M, 48 h
NCI-H522 = type: cell-based; details: Homo sapiens, one dose 10^-5 M, 48 h
[2] = test system: full NCI 60 cell lines panel; details: for activity at 10 µM: Homo sapiens, 60 cell, 48 h, read-out: Mean % growth
SF-268 = type: cell-based; details: Homo sapiens, one dose 10^-5 M, 48 h, read-out: % growth
DU-145 = type: cell-based; details: Homo sapiens, one dose 10^-5 M, 48 h
HS 578T = type: cell-based; details: Homo sapiens; one dose 10^-5 M, 48 h; HS 578T; read-out: % growth
T-47D = type: cell-based; details: Homo sapiens, T47D, one dose 10^-5 M, 48 h, read-out: % growth
K-562 = type: cell-based; details: Homo sapiens, K562, one dose 10^-5 M, 48 h
SNB-19 = type: cell-based; details: Homo sapiens, one dose 10^-5 M, 48 h, read-out: % growth
HCC-2998 = type: cell-based; details: Homo sapiens, one dose 10^-5 M, 48 h
LOX IMVI = type: cell-based; details: Homo sapiens, one dose 10^-5 M, 48 h, read-out: % growth
M14 = type: cell-based; details: Homo sapiens, one dose 10^-5 M, 48 h

## C[C@H](Nc1ncnc2[nH]cnc12)c1cc2cccc(Cl)c2c(=O)n1-c1ccccc1 [Duvelisib]
[1]
  IC50: 22.8 ± 0.65 µM

## C#Cc1cccc(Nc2ncnc3cc(OCCOC)c(OCCOC)cc23)c1 [erlotinib]
[1]
  IC50: 22.8 ± 0.65 µM

## N=C(NN=Cc1ccc([N+](=O)[O-])cc1)c1c(N)nc(S)nc1-c1ccc(Cl)cc1Cl [Compound 4o, 4-amino-6–(2,4-dichlorophenyl)-2-mercapto-N'-[(4-nitrophenyl)methylene] pyrimidine-5-carboximidohydrazide]
ACHN
  % growth at 10 µM: 88.8%
HOP-62
  % growth at 10 µM: 57%
SK-OV-3
  % growth at 10 µM: 89.1%
HL-60(TB)
  % growth at 10 µM: 103%
KM12
  % growth at 10 µM: 108%
SK-MEL-28
  % cell growth at 10 µM: 113%
COLO 205
  % growth at 10 µM: 115%
IGROV1
  activity at 10 µM: 94.9%
SN12C
  % growth at 10 µM: 96.1%
PC-3
  percent cell growth at 10 µM: 96.8%
UACC-257
  percent cell growth at 10 µM: 104%
OVCAR-5
  percent cell growth at 10 µM: 111%
RPMI-8226
  % growth at 10 µM: 97.3%
MDA-MB-468
  percent cell growth at 10 µM: 90.8%
SR
  percent cell growth at 10 µM: 76.8%
NCI/ADR-RES
  cell growth percent at 10 µM: 105%
MDA-MB-435
  activity at 10 µM: 108%
CCRF-CEM
  % cell growth at 10 µM: 106%
786-0
  % growth at 10 µM: 54.1%
U251
  % growth at 10 µM: 67%
SK-MEL-5
  activity at 10 µM: 104%
MCF7
  activity at 10 µM: 88.2%
A498
  % growth at 10 µM: 160%
OVCAR-3
  % growth at 10 µM: 110%
OVCAR-8
  % growth of cells at 10 µM: 98.4%
NCI-H23
  activity at 10 µM: 90.2%
RXF 393
  activity at 10 µM: 73%
HCT-116
  activity at 10 µM: 85.2%
OVCAR-4
  % growth at 10 µM: 111%
HCT-15
  activity at 10 µM: 103%
UO-31
  % cell growth at 10 µM: 98.3%
NCI-H226
  % growth at 10 µM: 82.1%
CAKI-1
  % growth at 10 µM: 78.8%
MOLT-4
  activity at 10 µM: 94%
A549/ATCC
  % growth at 10 µM: 101%
SF-539
  % growth at 10 µM: 74.7%
MALME-3M
  % growth at 10 µM: 73%
EKVX
  % cell growth at 10 µM: 98.9%
MDA-MB-231/ATCC
  % growth at 10 µM: 77.5%
BT-549
  % cell growth at 10 µM: 75.7%
HOP-92
  % growth at 10 µM: 2.04%
HT29
  % growth at 10 µM: 116%
SW-620
  % growth at 10 µM: 108%
SF-295
  % cell growth at 10 µM: 52.4%
NCI-H460
  activity at 10 µM: 114%
UACC-62
  % growth at 10 µM: 84.7%
TK-10
  % cell growth at 10 µM: 142%
SK-MEL-2
  % growth at 10 µM: 93.4%
NCI-H522
  % growth at 10 µM: 78.5%
[2]
  activity at 10 µM: 93.5%
SF-268
  activity at 10 µM: 94.9%
DU-145
  % growth at 10 µM: 115%
HS 578T
  activity at 10 µM: 87.1%
T-47D
  activity at 10 µM: 95.3%
K-562
  % growth at 10 µM: 95%
SNB-19
  activity at 10 µM: 74.9%
HCC-2998
  % growth at 10 µM: 106%
LOX IMVI
  activity at 10 µM: 96.5%
M14
  % growth at 10 µM: 102%

## COc1ccc(C=NNC(=N)c2c(N)nc(S)nc2-c2ccc(Cl)cc2Cl)cc1 [Compound 4p, 4-amino-6–(2,4-dichlorophenyl)-2-mercapto-N'-[(4-methoxyphenyl)methylene] pyrimidine-5-carboximidohydrazide]
ACHN
  % growth at 10 µM: 110%
HOP-62
  % growth at 10 µM: 90.2%
SK-OV-3
  % growth at 10 µM: 108%
HL-60(TB)
  % growth at 10 µM: 96.9%
KM12
  % growth at 10 µM: 104%
SK-MEL-28
  % cell growth at 10 µM: 112%
COLO 205
  % growth at 10 µM: 127%
IGROV1
  activity at 10 µM: 108%
SN12C
  % growth at 10 µM: 108%
PC-3
  percent cell growth at 10 µM: 98.9%
UACC-257
  percent cell growth at 10 µM: 103%
OVCAR-5
  percent cell growth at 10 µM: 117%
RPMI-8226
  % growth at 10 µM: 99.4%
MDA-MB-468
  percent cell growth at 10 µM: 105%
SR
  percent cell growth at 10 µM: 97.5%
NCI/ADR-RES
  cell growth percent at 10 µM: 114%
MDA-MB-435
  activity at 10 µM: 113%
CCRF-CEM
  % cell growth at 10 µM: 99.1%
786-0
  % growth at 10 µM: 90.2%
U251
  % growth at 10 µM: 103%
SK-MEL-5
  activity at 10 µM: 105%
MCF7
  activity at 10 µM: 91.5%
A498
  % growth at 10 µM: 138%
OVCAR-3
  % growth at 10 µM: 113%
OVCAR-8
  % growth of cells at 10 µM: 103%
NCI-H23
  activity at 10 µM: 100%
RXF 393
  activity at 10 µM: 94.5%
HCT-116
  activity at 10 µM: 99.8%
OVCAR-4
  % growth at 10 µM: 122%
HCT-15
  activity at 10 µM: 106%
UO-31
  % cell growth at 10 µM: 97.7%
NCI-H226
  % growth at 10 µM: 97.2%
CAKI-1
  % growth at 10 µM: 97.3%
MOLT-4
  activity at 10 µM: 95.7%
A549/ATCC
  % growth at 10 µM: 102%
SF-539
  % growth at 10 µM: 96.8%
MALME-3M
  % growth at 10 µM: 89.4%
EKVX
  % cell growth at 10 µM: 108%
MDA-MB-231/ATCC
  % growth at 10 µM: 90.5%
BT-549
  % cell growth at 10 µM: 95.6%
HOP-92
  % growth at 10 µM: 74.8%
HT29
  % growth at 10 µM: 106%
SW-620
  % growth at 10 µM: 105%
SF-295
  % cell growth at 10 µM: 85.8%
NCI-H460
  activity at 10 µM: 113%
UACC-62
  % growth at 10 µM: 97.2%
TK-10
  % cell growth at 10 µM: 143%
SK-MEL-2
  % growth at 10 µM: 115%
NCI-H522
  % growth at 10 µM: 97.5%
[2]
  activity at 10 µM: 104%
[2]; one dose
  activity on all 60 cancer cell lines tested (in words): weak activity
SF-268
  activity at 10 µM: 104%
DU-145
  % growth at 10 µM: 110%
HS 578T
  activity at 10 µM: 105%
T-47D
  activity at 10 µM: 100%
K-562
  % growth at 10 µM: 102%
SNB-19
  activity at 10 µM: 93%
HCC-2998
  % growth at 10 µM: 118%
LOX IMVI
  activity at 10 µM: 103%
M14
  % growth at 10 µM: 107%
